Results reported in patent US20030206882A1, “Fatty acid sanitizer” (priority 2002, published 2003).

What was measured:
[1] = Compatibility/stability of the aqueous composition; format: physicochemical; conditions: heptanoic acid alone versus with sulfonate coupler
[2] = tested on: Staphylococcus aureus ATCC 6538; experiment: Sanitizing Efficacy/Germicidal and Detergent Sanitizing Action of Disinfectants; format: cell-based; conditions: summary of Table 7, heptanoic acid without coupler
Method: Sanitizing Efficacy/Germicidal and Detergent Sanitizing Action of Disinfectants—Final Action
This test measures the sanitizing efficacy against Staphylococcus aureus ATCC 6538 and Escherichia coli ATCC 11229 with a 10% milk challenge at a 15 second exposure time. A 10% milk challenge is achieved by adding 90 ml of the test formulation to 10 ml of milk, mixing, and removing 1 ml for a final volume of 99 ml.

What does the source list for `CCCCCCC(=O)O` [heptanoic acid]?
compatibility (stability) of the composition (in words) [1]: less compatibility; antimicrobial efficacy (in words) [2]: satisfactory antimicrobial efficacy
